tested on: basilar artery of a rabbit (contraction induced by KCl); experiment: Contraction of removed rabbit basilar artery in a hyperpotassic medium (calcium antagonistic activity); type: cell-based; settings: Oryctolagus cuniculus, KCl at 35 mmoles, read-out: IC50 (concentration which reduces by 50% the amplitude of the contraction induced by KCl)
Experimental: The protocol of this test is the following. The rabbit is anaesthetized with pentobarbital at a dose of 30 mg/kg then sacrificed by exsanguination and decapitated at the third cervical vertebra. The basilar artery is removed (1.5 cm) between the vertebral arteries and the Willis's polygon. The basilar artery is then cut in a spiral at an angle of 45°. It is fixed by means of a curved needle between an L shaped glass support and a movement sensor (Grass, type FT03). A mechanical tension of 500 mg is applied to the vessel, before letting it reach its equilibrium condition.
For a period of 1 hour, the vessel is rinsed every 20 minutes, until a stable level is obtained.
The tonic contraction following depolarization caused by KCl is dependent on the calcic movements for it is abolished by the suppression of calcium in the survival medium.
The concentrations (in nM) are measured which reduce by 50% the amplitude of the contraction induced by the KCl at 35 mmoles.

Compound | IC50 [nM]
COc1ccc(O)c(OCCN2CCCCC2)c1C(O)CCc1ccc(O)cc1 (stereo not drawn) [compound 169] | > 100
COc1ccc(SC)c(OCCN2CCCCC2)c1C(O)CCc1ccc(O)cc1 (stereo not drawn) [compound 174] | 27
COc1ccc(OCc2ccccc2)c(OCCN2CCCCC2)c1C(O)CCc1ccc(O)cc1 (stereo not drawn) [compound 168] | > 100
COc1ccc(O)c(C(O)CCc2ccc(O)cc2)c1OCCN1CCCCC1 (stereo not drawn) [compound 148] | > 100
C=CCOc1ccc(OC)c(C(O)CCc2ccc(O)cc2)c1OCCN1CCCCC1 (stereo not drawn) [compound 167] | 53
CCOc1ccc(OC)c(OCCN2CCCCC2)c1C(O)CCc1ccc(O)cc1 (stereo not drawn) [compound 160] | 6
COCCOc1ccc(OC)c(C(O)CCc2ccc(O)cc2)c1OCCN1CCCCC1 (stereo not drawn) [compound 171] | > 100
CCSc1ccc(OC)c(C(O)CCc2ccc(O)cc2)c1OCCN1CCCCC1 (stereo not drawn) [compound 175] | 31
CCCCOc1ccc(OC)c(OCCN2CCCCC2)c1C(O)CCc1ccc(O)cc1 (stereo not drawn) [compound 150] | 100
CCCCCCCCOc1ccc(OC)c(OCCN2CCCCC2)c1C(O)CCc1ccc(O)cc1 (stereo not drawn) [compound 156] | > 100
CCCOc1ccc(OC)c(C(O)CCc2ccc(O)cc2)c1OCCN1CCCCC1 (stereo not drawn) [compound 166] | 120
COc1ccc(OC2CCCCC2)c(C(O)CCc2ccc(O)cc2)c1OCCN1CCCCC1 (stereo not drawn) [compound 158] | > 100
CCCOc1ccc(OC)c(OCCN2CCCCC2)c1C(O)CCc1ccc(O)cc1 (stereo not drawn) [compound 152] | 10
COc1ccc(C)c(C(O)CCc2ccc(O)cc2)c1OCCN1CCCCC1 (stereo not drawn) [compound 177] | 30
COc1ccc(OC2CCCCC2)c(OCCN2CCCCC2)c1C(O)CCc1ccc(O)cc1 (stereo not drawn) [compound 173] | > 100
CCOc1ccc(OC)c(C(O)CCc2ccc(O)cc2)c1OCCN1CCCCC1 (stereo not drawn) [compound 164] | 24
COc1ccc(OCC(F)(F)F)c(OCCN2CCCCC2)c1C(O)CCc1ccc(O)cc1 (stereo not drawn) [compound 137] | > 100
COc1ccc(OCc2ccccc2)c(C(O)CCc2ccc(O)cc2)c1OCCN1CCCCC1 (stereo not drawn) [compound 146] | > 100
COc1ccc(OC(C)C)c(C(O)CCc2ccc(O)cc2)c1OCCN1CCCCC1 (stereo not drawn) [compound 154] | 13

tested on: not listed separately; experiment: Acute toxicity (LD50) in mice, method of Litchfield and Wilcoxon; settings: mouse, in vivo, iv

Compound | LD50 [mg/kg]
COc1ccc(SC)c(OCCN2CCCCC2)c1C(O)CCc1ccc(O)cc1 (stereo not drawn) [compound 174] | 22
CCOc1ccc(OC)c(C(O)CCc2ccc(O)cc2)c1OCCN1CCCCC1 (stereo not drawn) [compound 164] | 17

Reference: patent US5144029A, “Derivatives of 1-[3-(4-hydroxyphenyl) 1-hydroxy 1-propyl] benzene substituted in position 2 by an aminoalkyleneoxy chain, the method of preparing same and the application thereof to therapeutics” (Delalande S.A., priority 1988, dated 1992)
